Experimental data taken from US7258862B2, “Mushroom extracts having anticancer activity” (Gavish-Galilee Bio Aplications Ltd., priority 2004, dated 2007).
“Also recorded” adds a separate entry of the source.

Key:
Format in all cases: cell-based, human
[1] = system: p210^Bcr-Abl; assay: Western blot of p210 Bcr-Abl expression in K562 cells; details: extracts 500 μg/ml and 250 μg/ml, AG957 10 μM and 20 μM, 48 hours, Western blot (FIGS. 3A-3B)
[2] = system: PARP; assay: PARP cleavage Western blot in K562 cells; details: 500 μg/ml and 250 μg/ml, 48 hours, Western blot (FIGS. 2A-2B)
[3] = system: K562 cells; assay: Apostain ELISA assay (DNA condensation, apoptosis) in K562 cells; details: 48 h; for Relative Apostain Value: K562, solvent-treated sample = 1
[4] = system: K562 cells; assay: Erythroid differentiation: hemoglobin production in K562 cells

Structure (SMILES): COC(=O)c1ccc(NCc2cc(O)ccc2O)cc1 [AG957]
- Effect on p210^Bcr-Abl expression levels in K562 cells (in words) [1]: reduction in Bcr-Abl protein levels
- Cleavage of PARP in K562 cells (in words) [2]: significantly activates PARP cleavage; also recorded: significant cleavage of PARP
- Relative Apostain Value ([3]; 10 μM): 6.2
- Relative Apostain Value ([3]; 20 μM): 3.9
- Induction of apoptosis / increase in DNA condensation in K562 cells (in words) ([3]; extracts 250 and 500 μg/ml, AG957 10 μM): significantly induced an increase in DNA condensation

Structure (SMILES): CCCC(=O)O [Butyric Acid, butyric acid]
- Relative Hemoglobin ([4]; 1 mM, day 5, K562, solvent-treated sample = 1.0): 9.4
- Induction of hemoglobin production / erythroid differentiation in K562 cells (in words) ([4]; day 5 post-treatment, versus DMSO-treated cells): active in inducing hemoglobin expression
